From ChEMBL document CHEMBL4390701, “Discovery of 5-(5-fluoro-1H-pyrrolo[2,3-b]pyridin-3-yl)pyrazin-2(1H)-one derivatives as new potent PB2 inhibitors” (Bioorg Med Chem Lett, 2019)

Columns and labels:
[1] = Binding affinity to influenza virus PB2 transformed into Escherichia coli rosseta competent cells by surface plasmon resonance analysis; parameters: species or system unidentified influenza virus
Influenza A virus = test: Antiviral activity against Influenza A virus (A/PR/8/34 (H1N1)) infected in MDCK cells assessed as reduction in viral replication preincubated for 1 hr followed by compound washout and measured after 48 hrs; type: functional, organism-based, A/Puerto Rico/8/1934(H1N1)
[2] = system: unidentified influenza virus; test: Binding affinity to influenza virus PB2 transformed into Escherichia coli rosseta competent cells assessed as binding constant by isothermal titration calorimetry
[3] = Cytotoxicity against MDCK cells assessed as reduction in cell viability measured after 72 hrs by alamar blue assay; type: cell-based, Canis lupus familiaris; settings: dog
[4] = Binding affinity to influenza virus PB2 transformed into Escherichia coli rosseta competent cells by isothermal titration calorimetry; parameters: species or system unidentified influenza virus
[5] = Influenza A virus, A/Puerto Rico/8/1934(H1N1), MDCK

Structure (SMILES)	Kd [1] [nM]	also measured
O=C(O)[C@H]1C2CCC(CC2)[C@@H]1Nc1nc(-c2c[nH]c3ncc(F)cc23)cn(CC(F)F)c1=O	160	–
O=C(O)[C@H]1C2CCC(CC2)[C@@H]1Nc1nc(-c2c[nH]c3ncc(F)cc23)cn(-c2ccc(C(F)(F)F)cc2)c1=O	7150	–
CCCn1cc(-c2c[nH]c3ncc(F)cc23)nc(N[C@H]2C3CCC(CC3)[C@@H]2C(=O)O)c1=O	320	–
O=C(O)[C@H]1C2CCC(CC2)[C@@H]1Nc1nc(-c2c[nH]c3ncc(F)cc23)cn(Cc2cccc(C(F)(F)F)c2)c1=O	2130	–
O=C(O)[C@H]1C2CCC(CC2)[C@@H]1Nc1nc(-c2c[nH]c3ncc(F)cc23)cn(C2CCC2)c1=O	470	–
Cn1cc(-c2c[nH]c3ncc(F)cc23)nc(NCCCN2CCOCC2)c1=O	> 50000	–
Cn1cc(-c2c[nH]c3ncc(F)cc23)nc(NC[C@@H]2CCCO2)c1=O	10200	–
Cn1cc(-c2c[nH]c3ncc(F)cc23)nc(NCCc2cccs2)c1=O	> 50000	–
CC(C)C(CC(=O)O)Nc1nc(-c2c[nH]c3ncc(F)cc23)cn(C)c1=O (stereo not given)	3470	–
Cn1cc(-c2c[nH]c3ncc(F)cc23)nc(NC23CC4CC(CC(O)(C4)C2)C3)c1=O	2050	–
CCn1cc(-c2c[nH]c3ncc(F)cc23)nc(N[C@H]2C3CCC(CC3)[C@@H]2C(=O)O)c1=O	110	EC50 (Influenza A virus; [5]): 1020 nM; K [2]: 5.19 ×10⁶ /M; CC50 at 72 h [3]: > 100000 nM; Kd [4]: 190 nM
C[C@H](Nc1nc(-c2c[nH]c3ncc(F)cc23)cn(C)c1=O)c1cccc(F)c1	25700	–
O=C(O)[C@H]1C2CCC(CC2)[C@@H]1Nc1nc(-c2c[nH]c3ncc(F)cc23)ncc1F [PIMODIVIR]	70	EC50 (Influenza A virus; [5]): 2 nM; CC50 at 72 h [3]: > 100000 nM; Kd [4]: 50 nM
O=C(O)[C@H]1C2CCC(CC2)[C@@H]1Nc1nc(-c2c[nH]c3ncc(F)cc23)cn(-c2ccccc2)c1=O	1000	–
Cc1cc(C)cc(-n2cc(-c3c[nH]c4ncc(F)cc34)nc(N[C@H]3C4CCC(CC4)[C@@H]3C(=O)O)c2=O)c1	4900	–
NC(=O)c1ncn([C@@H]2O[C@H](CO)[C@@H](O)[C@H]2O)n1 [RIBAVIRIN]	–	EC50 (Influenza A virus): 9120 nM; CC50 at 72 h [3]: > 100000 nM

Structure (SMILES)	Kd [1] [nM]	also measured
O=C(O)[C@H]1C2CCC(CC2)[C@@H]1Nc1nc(-c2c[nH]c3ncc(F)cc23)cn(C2CCCC2)c1=O	490	–
CCOc1ccc(-n2cc(-c3c[nH]c4ncc(F)cc34)nc(N[C@H]3C4CCC(CC4)[C@@H]3C(=O)O)c2=O)cc1	6230	–
O=C(O)[C@H]1C2CCC(CC2)[C@@H]1Nc1nc(-c2c[nH]c3ncc(F)cc23)cn(Cc2cccs2)c1=O	1040	–
COc1ccc(-n2cc(-c3c[nH]c4ncc(F)cc34)nc(N[C@H]3C4CCC(CC4)[C@@H]3C(=O)O)c2=O)cc1	3930	–
CC[C@H](Nc1nc(-c2c[nH]c3ncc(F)cc23)cn(C)c1=O)c1ccccc1	10300	–
O=C(O)[C@H]1C2CCC(CC2)[C@@H]1Nc1nc(-c2c[nH]c3ncc(F)cc23)cn(C2CC2)c1=O	320	–
CC(C)(C)C1CCC(n2cc(-c3c[nH]c4ncc(F)cc34)nc(N[C@H]3C4CCC(CC4)[C@@H]3C(=O)O)c2=O)CC1 (stereo not given in full)	16300	–
CC1CCCCC1Nc1nc(-c2c[nH]c3ncc(F)cc23)cn(C)c1=O (stereo not given)	5230	–
O=C(O)[C@H]1C2CCC(CC2)[C@@H]1Nc1nc(-c2c[nH]c3ncc(F)cc23)cn(C2CCCCC2)c1=O	740	–
Cn1cc(-c2c[nH]c3ncc(F)cc23)nc(N[C@@H](Cc2ccccc2)C(N)=O)c1=O	22300	–
Cn1cc(-c2c[nH]c3ncc(F)cc23)nc(N[C@H]2C3CCC(CC3)[C@@H]2C(=O)O)c1=O	270	–
O=C(O)Cn1cc(-c2c[nH]c3ncc(F)cc23)nc(N[C@H]2C3CCC(CC3)[C@@H]2C(=O)O)c1=O	500	–
O=C(O)[C@H]1C2CCC(CC2)[C@@H]1Nc1nc(-c2c[nH]c3ncc(F)cc23)cn(CC(F)(F)F)c1=O	170	–
CC(C1CC1)n1cc(-c2c[nH]c3ncc(F)cc23)nc(N[C@H]2C3CCC(CC3)[C@@H]2C(=O)O)c1=O (stereo not given in full)	530	–
O=C(O)[C@H]1C2CCC(CC2)[C@@H]1Nc1nc(-c2c[nH]c3ncc(F)cc23)cn(-c2ccc(F)c(F)c2)c1=O	5330	–
Cn1cc(-c2c[nH]c3ncc(F)cc23)nc(NC[C@H]2CCCO2)c1=O	8270	–
